Measurements: publication PMC11956005 (Journal of Medicinal Chemistry, 2025)
Where no end group is shown, it is not given here. [ ]: non-standard residue; d: D form. The star is where a group is joined. X1 = CCCCCCCCCCCCCCCC(=O)N[C@@H](CCC(=O)NCCCC[C@H](NC(=O)CCOCCOCCOCCOCCNC(=O)CNC(=O)CCN1C(=O)CC(*)C1=O)C(=O)NCCOCCOCCOCCOCCC(=O)N[C@@H](CCCCNC(=O)CC[C@H](NC(=O)CCCCCCCCCCCCCCCCC(=O)O)C(=O)O)C(=O)OC)C(=O)O; Aib = CC(C)(N)C(=O)O

Experiments:
[1] = native GLP-1; cited from earlier work
db/db mice = test: Blood glucose control after a single subcutaneous dose in db/db mice; assay type: in vivo, mouse; settings: single s.c. dose, 72 h postinjection

Molecule	intravenous half-life [1]	blood sugar reduction (Δglucose from baseline) (db/db mice)
CC[C@H](C)[C@H](NC(=O)[C@H](Cc1ccccc1)NC(=O)[C@H](CCC(=O)O)NC(=O)[C@H](CCCCN)NC(=O)[C@H](C)NC(=O)[C@H](C)NC(=O)[C@H](CCC(N)=O)NC(=O)CNC(=O)[C@H](CCC(=O)O)NC(=O)[C@H](CC(C)C)NC(=O)[C@H](Cc1ccc(O)cc1)NC(=O)[C@H](CO)NC(=O)[C@H](CO)NC(=O)[C@@H](NC(=O)[C@H](CC(=O)O)NC(=O)[C@H](CO)NC(=O)[C@@H](NC(=O)[C@H](Cc1ccccc1)NC(=O)[C@@H](NC(=O)CNC(=O)[C@H](CCC(=O)O)NC(=O)[C@H](C)NC(=O)[C@@H](N)Cc1c[nH]cn1)[C@@H](C)O)[C@@H](C)O)C(C)C)C(=O)N[C@@H](C)C(=O)N[C@@H](Cc1c[nH]c2ccccc12)C(=O)N[C@@H](CC(C)C)C(=O)N[C@H](C(=O)N[C@@H](CCCCN)C(=O)NCC(=O)N[C@@H](CCCN=C(N)N)C(=O)NCC(=O)O)C(C)C [GLP-1, glucagon-like peptide-1]	1.5 to 2 min	
H[Aib]EGTFTSDVSSYLEGQAAKEFIAWLVRGRGGGGSGGGGSGGGGSGC(X1) [TE-8131]		-8.2 ± 1.4 mmol/L
